Values joined by “and” are separate entries in the source; they are usually repeats but may differ in a detail not shown here. Identical values can stand only once. “Also recorded” adds a separate entry of the source.
Experiments:
[1] = Bovine liver microsome stability; format: in vitro ADME; settings: intrinsic clearance
Method: 2.2 Microsomal stability studies […]
(b) Bovine liver microsome stability. Test compounds (0.5 µM) were incubated with 0.5 mg/mL bovine liver microsomes (Xenotech LLC TM) in 50 mM potassium phosphate buffer, pH7.4 and the reaction initiated upon addition of excess NADPH (8 mg/mL in 50 mM potassium phosphate buffer, pH7.4).
Aliquots (50 µL) of the incubation mixture were taken at time zero, 3, 6, 9, 15 and 30 min then mixed with acetonitrile (100 µL) to stop the reaction. An internal standard was added to all samples, prior to centrifugation (10 min, 1,665 g, RT) to sediment precipitated protein. Reaction plates were then sealed prior to UPLCMSMS analysis using a Quattro Premier XE (Waters corporation, USA).
XLfit (IDBS, UK) was used to calculate the exponential decay and consequently the rate constant (k) from the ratio of peak area of test compound to internal standard at each timepoint. The rate of intrinsic clearance (CLi) of each test compound was then calculated using the following […]
CLi(mL/min/g liver) = k x V x microsomal protein yield
Where V (mL/mg protein) is the incubation volume/ mg protein added and microsomal protein yield is taken as 52.5 mg protein/ g of liver. Verapamil (0.5 µM) was used as a positive control to confirm acceptable assay performance. […]

[2] = tested on: T. congolense; test: NMRI mouse efficacy model, T. congolense; format: in vivo, Trypanosoma congolense; settings: for Efficacy, T. congo / Efficacy at 10 mg/kg SC for 4 days, T. congo: mice; for Efficacy at 10 mg/kg SC for 4 days, T. congo: 10 mg/kg SC once daily for 4 days
Method: 3. In vivo efficacy studies
The T. congolense (IL3000) and T. vivax (ILRAD V34) cell lines7, 8, both originating from Kenya, were used in the following in vivo mouse studies. For studies in cattle, either Trypanosoma congolense (savannah) KONT 2/133, 224) or T. vivax STIB 719 was used.
3.1 Mouse efficacy studies for T. brucei brucei.
Mouse efficacy studies for T. brucei brucei were carried out as previously detailed.9 3.2 NMRI mouse efficacy studies for T. congolense and T. vivax.
Mouse models of infections were carried out using standardized protocols. Briefly, 1 mL samples of cryopreserved T. congolense, or T. vivax-infected blood harvested directly from an infected mouse, were diluted with Hanks Balanced Salt Solution plus 20 mM glucose (HBSS+G) to 5 x 10^4 trypomastigotes/mL (5 x 105 for T. vivax). Female mice (NMRI) were inoculated IP on day 0 with 0.2 mL/animal (equivalent to ~ 1 x 104 T. congolense or ~ 1 x 105 T. vivax per animal). The level of parasitaemia was inspected microscopically on day 3 using tail blood smears, counting 20 high powered fields (× 400 magnification). For untreated or treated animals whose tail smears exceeded 50 parasites/field, precise parasite levels were established using a Neubauer haemocytometer; mice with a parasite burden over 1 x 108 were promptly and humanely terminated (T. congolense only, from our experience the mice will not survive for a further 24 h). Alternatively, in the case of T. vivax-infected mice the immune system will bring the infection to a sub-lethal level (below limit of detection) […]
followed by cycles of high and low parasitaemia. Eventually mice infected with T. vivax succumb to the infection between 30 – 60 days post-infection.
Suppression of parasitaemia - mouse
On day 3 post-infection, animals were randomly allocated to groups, with 3 mice/group. Infected animals were dosed with one of the following: diaminazene diaceturate IP. – 40 mg/kg once only as a control (early-stage trypanocide used to clear the parasites in the systemic circulation and in tissues other than CNS), compound 1 (SC) at 3, 10, 30 and 50 mg free base/kg twice and once daily for 4 d or a single dose, or compound 2 (SC) at 3 and 10 mg free base /kg once daily for 4 d, once daily for 2 d or a single dose, one group of 3 mice acted as an untreated control group. The dose solutions were prepared daily, using 5% DMSO: 40% PEG400: 55% MilliQ H2O for test compounds and 10% DMSO: 90% peanut oil for standard drugs. Alternatively, compound 2 was delivered for 48 h via SC implanted ALZET osmotic pumps (6, 12, 25 and 50 mg free base/mL, vehicle: 50% DMSO […]
and 50% deionized water).
Response to treatment was determined by monitoring parasitaemia twice a week until day 21.
After day 21, the mice were checked once a week until 63 d post-treatment. Mice surviving to the end of the experiment, and with blood smears clear of parasites, were considered cured. […]
The parasites were obtained from a donor calf. This isolate is resistant to diminazene (20 mg/kg) and isometamidium (1 mg/kg) in cattle, and diminazene (7 mg/kg) and isometamidium (>1 mg/kg) in mice. Calves were parasitaemic by study day 6. Calves (n = 5) were treated with compound 1 (5 mg/kg, SC, twice 12 h apart) on study

[3] = PK in female NMRI mice, SC; format: in vivo, mouse
Method: 2.5 PK and maximum tolerated dose - mouse
PK studies in female NMRI mice (Figure S1): Test compounds 1, 2 and 10 were dosed SC at 10 mg free base/kg (dose volume 10 mL/kg; dose vehicle: 5% (v/v) DMSO, 40% polyethylene glycol 400 (PEG400) and 55% deionized water) to female NMRI mice (n = 3). Blood samples (10 μL) were taken from each mouse at 0.08, 0.25, 0.5, 1, 2, 4, 6, 8 h post dose (24 h post dose for compounds 2 and 10 only) and mixed with two volumes of deionized water (20 μL). Alternatively, compound 2 was delivered for 48 h via SC implanted ALZET osmotic pumps (10, 25 and 50 mg free base/mL, vehicle: 50% DMSO and 50% deionized water) to the female NMRI mouse (n = 3). Blood samples (10 μL) from each mouse were taken at 1, 3, 6, 24, 30 and 48 h post-dose and mixed with two volumes of deionized water (20 μL). […]

[4] = tested on: L6 cells; test: Cytotoxicity assay, rat skeletal myoblasts (L6); format: cell-based
Method: 1.4 Cytotoxicity assays – Rat skeletal myoblasts (L6)
The cytotoxicity of test compounds was evaluated using a rat skeletal myoblast (L6) cell line, as previously described3, but with minor modifications. Cells were grown in RPMI media supplemented with 10% (v/v) fetal calf serum. L6 cells at a seeding density of 2 x 10^4 cells/mL were incubated in microtiter plates overnight at 37 °C and 5 % CO2 until adherent. The following day, test compounds were added to the plates (3-fold serial dilutions), prior to incubation for 69 h. Following incubation, 10 µL of Resazurin (12.5 mg in 100 mL phosphate buffered saline, Aldrich) was added to each well and the plates were incubated for a further 3 h. The plates were read using a SpectraMax (Gemini XS) fluorescence reader at an excitation wavelength of 536 nm and an emission wavelength of 588 nm. EC50 values were determined using SOFTmax Pro 5.2 analysis software. All experiments were conducted as technical replicates, with at least three biological replicates. […]

CC(C)CS(=O)(=O)N[C@H]1CC[C@H](Nc2nc(N)c(C(=O)c3c(F)cccc3F)s2)CC1 [Compound 1, N-((trans)-4-((4-Amino-5-(2,6-difluorobenzoyl)thiazol-2-yl)amino)cyclohexyl)-2-methylpropane-1-sulfonamide]
Bovine Microsome Cli (BLM: bovine microsomal clearance) [1]: <0.5 / 0.5 mL/min/g and <0.5 mL/min/g
Acute T. congolense efficacy in mice ([2]; 3 mg/kg bid SC for 4 days): Partial cure (2/3)
Acute T. congolense efficacy in mice ([2]; 10 mg/kg bid SC for 4 days): Full cure
T. congolense efficacy in mice ([2]; 10 mg/kg once daily for 4 days, SC): sterile cure
Acute T. congolense efficacy in mice ([2]; 30 mg/kg, single dose, SC): Partial cure: (2/3)
Acute T. congolense efficacy in mice ([2]; 50 mg/kg single dose, SC): sterile cure; also recorded: Full cure
bioavailability at 8 h ([3]; mouse, whole blood, 10 mg/kg SC): 74%
half-life at 8 h ([3]; mouse, whole blood, 10 mg/kg SC, read-out: T½): 1 h
half-life ([3]; mouse, whole blood, 10 mg/kg SC, read-out: T½ (converted)): ~1 h

CC(C)CS(=O)(=O)N[C@H]1CC[C@H](Nc2nc(N)c(C(=O)c3c(Cl)cccc3Cl)s2)CC1 [Compound 10, N-((trans)-4-((4-Amino-5-(2,6-dichlorobenzoyl)thiazol-2-yl)amino)cyclohexyl)-2-methylpropane-1-sulfonamide]
Bovine Microsome Cli (BLM: bovine microsomal clearance) [1]: 1.6 mL/min/g
Efficacy, T. congo ([2]; 3 mg/kg (head: SC for 4 days)): Full cure (3/3) 3 mg/kg
EC50 [4]: 3.4 µM

CNCc1cc(F)c(C(=O)c2sc(N[C@H]3CC[C@H](NS(=O)(=O)CC(C)C)CC3)nc2N)c(F)c1.Cl [Compound 8, N-((trans)-4-((4-Amino-5-(2,6-difluoro-4-((methylamino)methyl)benzoylthiazol-2-yl)amino)cyclohexyl))-2-methylpropane-1-sulfonamide Hydrochloride]
Bovine Microsome Cli (BLM: bovine microsomal clearance) [1]: 0.5 mL/min/g
Efficacy at 10 mg/kg SC for 4 days, T. congo [2]: Full cure (3/3)
EC50 [4]: 15 µM

CC(C)CS(=O)(=O)N[C@H]1CC[C@H](Nc2nc(N)c(C(=O)c3c(F)cc(CN(C)C)cc3F)s2)CC1 [Compound 2, N-(trans)-[4-[[4-Amino-5-[4-(dimethylaminomethyl)-2,6-difluoro-benzoyl]thiazol-2-yl]amino]cyclohexyl]-2-methyl-propane-1-sulfonamide]
Bovine Microsome Cli (BLM: bovine microsomal clearance) [1]: 1.1 mL/min/g
Efficacy in T. congolense-infected mice, implanted ALZET osmotic pumps ([2]; SC pump delivery, all dose levels): cured; also recorded: full cure
Efficacy, T. congo ([2]; 3 mg/kg (head: SC for 4 days)): Partial cure (2/3)
Efficacy at 10 mg/kg SC for 4 days, T. congo ([2]; 10 mg/kg): fully curative; also recorded: Full cure; also recorded: Partial cure (1/3)
Efficacy, T. congo ([2]; 10 mg/kg once daily for 2 days): Partial cure (2/3)
Efficacy, T. congo ([2]; 10 mg/kg, regimen not restated, listed after the 3 mg/kg result): Full cure
Cmax ([3]; mouse, blood, 10 mg/kg, single SC 10 mg free base/kg): 818 ng/mL
AUC(0-t) ([3]; mouse, blood, 10 mg/kg, single SC 10 mg free base/kg, read-out: AUC0-24 (converted)): 2160 ng·h/mL
concentration at 8 h ([3]; mouse, blood, single SC 10 mg free base/kg, read-out: Cmin (8 h)): 10 ng/mL
Cav ([3]; single SC 10 mg free base/kg): 78 ng/mL
EC50 [4]: 3.6 µM

Source: PMC9014415, “Repositioning of a Diaminothiazole Series Confirmed to Target the Cyclin-Dependent Kinase CRK12 for Use in the Treatment of African Animal Trypanosomiasis” (Journal of Medicinal Chemistry, 2022)
